# Reference: patent US9351929B2, “Antibiotic formulations, unit doses, kits, and methods” (Bayer Intellectual Property GMBH, priority 2005, dated 2016)
# Counter-ions that a name gives are not always drawn.
# Key:
# [1] = Aerosol particle size distribution by laser diffraction; assay type: physicochemical; conditions: solutions in WFI 60-140 mg/ml, fill 2-4 ml
# Description: Droplet size distributions for aerosolized drug and placebo solutions were measured using the Sympatec HELOS laser diffraction spectrometer. In preparation for a run, the nebulizer was connected to the compressed air line, the flow turned on and the pressure regulator set to a driving pressure to generate a flow rate of 8 LPM through the nebulizer. The flow was then turned off by closing the flow shut-off valve. Next, the nebulizer was connected to a “T” piece with one port plugged, and the other port coupled to a mouthpiece. The nebulizer was then filled with drug solution, and mounted so that nebulizer mouthpiece was aligned parallel to the nozzle of the Rodos dry powder disperser apparatus already installed in the spectrometer. The laser diffraction system was setup to automatically trigger when it sensed the presence of the aerosol generated by the nebulizer. Measurements were initiated by opening the shut-off valve to pressurize the nebulizer and generate the aerosol. A total of 6 particle size distribution scans were taken for each nebulizer run, and then averaged to provide representative size distribution results.
# beagle dogs = assay: 14-consecutive day face mask inhalation toxicity and recovery; assay type: in vivo, dog
# Description: Within 2 hours prior to usage, a vancomycin nebulizer solution having a concentration of 120 mg/ml was formed by dissolving vancomycin hydrochloride (available from Alpharma, Copenhagen, Denmark) in sterile water for injection USP (available from B. Braun Medical Inc., Bethlehem, Pa.). The solution was used to generate aerosolized vancomycin for all vancomycin exposure groups.
# The exposure system consisted of a single, cylindrical, plexiglass inhalation chamber (volume of ˜23.7 L, 14.61-cm radius, 35.56-cm height). The chamber was supplied with two Aerotech II nebulizers operated at ˜40 psi. Nebulized test article and nebulizer air supply was diluted with ˜10 L/min HEPA-filtered dilution air. The flow through the system was ˜36 L/min.
# The aerosolized vancomycin was administered via a face mask to 3 groups of male and female beagle dogs for durations of 15 min (Low), 30 min (Mid), and 60 min (High). A control group was exposed for 60 min to aerosols generated from normal saline solution, i.e., 0.9% sodium chloride injection USP (available from B. Braun Medical Inc.).
# Groups of dogs from the Control and High level 14-day exposures were also studied following a 14-day recovery period. Endpoints for all groups of dogs included physical examinations, clinical observations, body weights, ophthalmology, cardiovascular EKG, clinical pathology (hematology, clinical chemistry), urinalyses, organ weights, histopathology, and toxicokinetics.
# CD rats = assay: 14-consecutive day nose-only inhalation toxicity and recovery; assay type: in vivo, rat
# Description: The solution was used to generate aerosolized vancomycin for all vancomycin exposure groups.
# Nose-only exposures were conducted in a “flow-past” cylindrical inhalation chamber placed inside a steel-framed Plexiglas secondary containment box. The chamber contained 48 animal ports, each compatible with a single nose-only exposure tube, aerosol concentration sampling device (e.g., filter), or oxygen monitor.
# The total air flow through the exposure system was balanced to achieve individual animal port flows of ˜500 mL/min (port flow approximated based on total chamber flow). Measured flows included sample flow rate, nebulizer flow rate, dilution flow rate (chamber make-up air), and chamber exhaust flow.
# Vancomycin solution was aerosolized with two Aerotech II nebulizers operated at 20 psi driving pressure. The target aerosol Vancomycin concentration for all exposure levels was ˜1.0 mg/L.
# Aerosolized vancomycin was administered to 3 groups of male and female CD rats (available from Charles River Laboratories, Kingston, N.Y.) for durations of 30 min (Low), 90 min (Mid), and 180 min (High). A control group was exposed for 180 min to aerosols generated from a normal saline solution. Groups of rats from the Control and High level 14-day exposures were also studied following a 14-day recovery period. Endpoints included clinical observations, body weights, clinical pathology (hematology, clinical chemistry), urinalyses, organ weights, and histopathology.
compound,measurement,setting,value
"CN[C@H](CC(C)C)C(=O)N[C@H]1C(=O)N[C@@H](CC(N)=O)C(=O)N[C@H]2C(=O)N[C@H]3C(=O)N[C@H](C(=O)N[C@H](C(=O)O)c4cc(O)cc(O)c4-c4cc3ccc4O)[C@H](O)c3ccc(c(Cl)c3)Oc3cc2cc(c3O[C@@H]2O[C@H](CO)[C@@H](O)[C@H](O)[C@H]2O[C@H]2C[C@](C)(N)[C@H](O)[C@H](C)O2)Oc2ccc(cc2Cl)[C@H]1O [Vancomycin HCl, vancomycin hydrochloride]",volume weighted median size of aerosol,[1],2-3 μm
same,mass median aerodynamic diameter of exposure aerosol,"beagle dogs; 120 mg/ml solution, Aerotech II nebulizers, ~40 psi",1.9-2.6 μm
same,"physical examinations, clinical observations, ophthalmology, ECG, hematology, clinical chemistry, urinalyses, gross necropsy, organ weights","beagle dogs; dog, 14-day inhalation",no vancomycin related effects
same,survival,"beagle dogs; dog, 14 days, all groups",All dogs survived to scheduled necropsy
same,recovery of histopathological effects,"beagle dogs; dog, High level, 14-day recovery",complete after 14 days
same,histopathology,"beagle dogs; dog, end of 14-day exposure",limited to microscopic findings in the lung
same,tolerability,"beagle dogs; dog, face mask 15, 30, 60 min/day, 14 days",well-tolerated by all groups of dogs
same,mass median aerodynamic diameter of exposure aerosol,"CD rats; 120 mg/ml solution, Aerotech II nebulizers, 20 psi",2.0-2.6 μm
same,no observed effect level,"CD rats; rat, 14-day inhalation",not established
same,serum indicators of kidney function or urinalysis,"CD rats; rat, 14-day inhalation",No vancomycin related changes
same,lung weight increase,"CD rats; rat, High exposure level (180 min), 14 days",~19 % of control
same,histopathologic findings after recovery,"CD rats; rat, High level, 14 days of recovery",substantial diminution of these findings
same,lung weight increase,"CD rats; rat, Low exposure level (30 min), 14 days",approximately 8 % of control
same,neutrophils (hematology),"CD rats; rat, Mid and High exposure levels",statistically significant increase
same,lung weight increase,"CD rats; rat, Mid exposure level (90 min), 14 days",~20 % of control
same,exposure related histopathologic findings,"CD rats; rat, end of 14-day exposure",limited to the respiratory tract
same,tolerability,"CD rats; rat, inhalation 30, 90, 180 min/day, 14 days",well-tolerated by all groups of rats
same,body weight,"CD rats; rat, inhalation 14 days",no vancomycin treatment related effects
same,clinical observations,"CD rats; rat, inhalation 14 days",no vancomycin related effects
same,survival,"CD rats; rat, inhalation 14 days, all groups",All rats survived to scheduled necropsy
